In experiment [1] the target is muscarinic acetylcholine receptors. In words: inhibition of specific binding of ^3 H-Oxotremorine-M (^3 H-Oxo). Conditions: ^3 H-Oxotremorine 1.0 nM, rat cortex, 30 min. at 25° C. Also noted: species or system rat (male Wistar. An excerpt:
The pharmacological properties of the compounds of the invention can be illustrated by determining their capability to inhibit the specific binding of ^3 H-Oxotremorine-M (^3 H-Oxo). Birdsdall N. J. M., Hulme E. C., and Burgen A. S. V. (1980). "The Character of Muscarinic Receptors in Different Regions of the Rat Brain" Proc. Roy. Soc. London (Series B) 207,1.
^3 H-Oxo labels muscarinic receptor in the CNS (with a preference for agonist domains of the receptors). Three different sites are labeled by ^3 H-Oxo. […] Using the present experimental conditions only the high and medium affinity sites are determined.
The inhibitory effects of compounds on ^3 H-oxo binding reflects the affinity for muscarinic acetylcholine receptors.
All preparations are performed at 0°-4° C. unless otherwise indicated. Fresh cortex (0.1-1 g) from male Wistar rats (150-250 g) is homogenized for 5-10 seconds in 10 mL […] Hepes pH: 7.4, with an Ultra-Turrax homogenizer. The homogenizer is rinsed with 10 mL of buffer and the combined suspension centrifuged for 15 min. at 40,000×g. The pellet is washed three times with buffer. In each step the pellet is homogenized as before in 2×10 mL of buffer and centrifuged for 10 min. at 40,000×g.
The final pellet is homogenized in 20 mM Hepes pH: 7.4 (100 mL per g of original tissue) and used for binding assay. Aliquots of 0.5 mL is added 25 μL of test solution and 25 μL of ^3 H-Oxotremorine (1.0 nM, final concentration) mixed and incubated for 30 min. at 25° C. Non-specific binding is determined in triplicate using arecoline ([…], final concentration) as the test substance. After incubation samples are added 5 mL of ice-cold buffer and poured directly onto Whatman GF/C glass fiber filters under suction and immediately washed 2 times with 5 mL of ice-cold buffer. The amount of radioactivity on the filters are determined by conventional liquid scintillation counting. Specific binding is total binding minus non specific binding.
Test substances are dissolved in 10 mL water (if necessary heated on a steam-bath for less than 5 min.) at a concentration of 2.2 mg/mL. […] The test value will be given as IC50 (the concentration (nM) of the test substance which inhibits the specific binding of ^3 H-oxo by 50%). IC50 =(applied test substance concentration) x(Cx /Co -Cx)nM where Co is specific binding in control assays and Cx is the specific binding in the test assay. (The calculations assume normal mass-action kinetics).

Experiment [2] has as its target T1, muscarinic receptors (M1 -site, pirenzepine sensitive site) (Rattus norvegicus, UniProt P08482).
T1 construct: from tissue; host or cells: cerebral cortex membranes of male Wistar rats
T1 sequence (P08482 1-460): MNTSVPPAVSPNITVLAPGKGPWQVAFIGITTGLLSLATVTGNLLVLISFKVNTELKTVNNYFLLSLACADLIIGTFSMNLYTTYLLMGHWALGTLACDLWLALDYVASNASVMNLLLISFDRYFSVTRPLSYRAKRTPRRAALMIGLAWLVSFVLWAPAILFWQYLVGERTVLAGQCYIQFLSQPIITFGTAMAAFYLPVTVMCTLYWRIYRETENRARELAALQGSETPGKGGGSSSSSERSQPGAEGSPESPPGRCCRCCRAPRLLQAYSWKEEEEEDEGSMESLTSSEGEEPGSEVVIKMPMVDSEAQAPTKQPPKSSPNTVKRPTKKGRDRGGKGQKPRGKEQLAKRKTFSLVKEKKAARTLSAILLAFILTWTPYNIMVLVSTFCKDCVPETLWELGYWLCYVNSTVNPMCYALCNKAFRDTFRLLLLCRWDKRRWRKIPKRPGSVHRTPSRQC
Put plainly: inhibition of ^3 HPRZ (pirenzepine, [N-methyl-^3 H]) binding to rat cerebral cortex membranes. Also noted: species or system rat (male Wistar. The procedure:
Furthermore the pharmacological properties of the compounds of the invention can also be illustrated by determining their capability to inhibit ^3 HPRZ (pirenzepine, [N-methyl-^3 H]) binding to rat cerebral cortex membranes.
Pirenzepine binds selectively to subtype of muscarinic receptors. Historically the type is named the M1 -site, whereas pirenzepine sensitive site would be more appropriate.
All preparations are performed at 0°-4° C. unless otherwise indicated. Fresh cortex ([…]) from male Wistar rats (150-200 g) is homogenized for 5-10 s in 10 mL 20 mM Hepes pH: 7.4, with an Ultra-Turrax homogenizer. The homogenizer is rinsed with 2×10 mL of buffer and the combined suspension centrifuged for 15 min. at 40,000×g. The pellet is washed three times with buffer. In each step the pellet is homogenized as before in 3×10 mL of buffer and centrifuged for 10 min. at 40,000×g.
The final pellet is homogenized in 20 mM Hepes pH: 7.4 (100 mL per g of original tissue) and used for binding assay. Aliquots of 0.5 mL is added 20 μl of test solution and 25 μL of ^3 HPRZ (1.0 nM, final conc.), mixed and incubated for 60 min. at 20° C. Non-specific binding is determined in triplicate using atropine (1 ,μg/mL, final conc.) as the test substance. After incubation samples are added 5 mL of ice-cold buffer and poured directly onto Whatman GF/C glass fiber filters under suction and immediately washed 2 times with 5 mL of ice-cold buffer. The amount of radioactivity on the filters are determined by conventional liquid scintillation counting. Specific binding is total binding minus non-specific binding.
Test substances are dissolved in 10 mL water, at a concentration of 0.22 mg/mL.
The test value will be given as IC50 (the concentration (nM) of the test substance which inhibits the specific binding of ^3 HPRZ by 50%). IC50 =(applied test substance concentration) x(Cx /Co -Cx)nM where Co is specific binding in control assays and Cx is the specific binding in the test assay. (The calculations assume normal mass-action kinetics).

[3] abbreviates: ^3 HPRZ 1.0 nM, rat cortex, 60 min. at 20° C., read-out: ^3 HPRZ IC50 (head from b208 on: Pir IC-50).

The text below walks through data of patent US5665745A, “Heterocyclic compounds and their preparation and use” (Eli Lilly and Company, priority 1995, dated 1997).

pIC50: −log10 of the molar value. Read-outs that look alike come from different tables or passages of the source.

Turning to `FC(F)(F)CCCOc1nsnc1OC1CN2CCC1CC2` (racemic) [Compound 104, (±)-3-(4,4,4-Trifluorobutyloxy)-4-(1-azabicyclo[2.2.2]octyl-3-oxy)-1,2,5-thiadiazole], the pIC50 in experiment [1] was 6.97; in experiment [2] (setting [3]), 6.94.
Take `CCCCSc1nsnc1OC1CCCN(C)C1` (racemic) [Compound 29, (±)-3-Butylthio-4-(1-methyl-3-piperidyloxy)-1,2,5-thiadiazole]: the pIC50 was 7.47 in experiment [1] and 7.70 in experiment [2] (setting [3]).
Taken in the same sequence, the figures for `CCCCOc1nsnc1OCC[N+](C)(C)C` [Compound 35, 3-Butyloxy-4-(2-(trimethylamino)ethoxy)-1,2,5-thiadiazole iodide] were 7.64 and 7.48.
`FC(F)(F)c1ccc(SCCSc2nsnc2OC2CN3CCC2CC3)s1` (racemic) [Compound 55, (±)-3-(2-(2-Thio-5-trifluoromethylthienyl)ethylthio)-4-(1-azabicyclo[2.2.2]octyl-3-oxy)-1,2,5-thiadiazole]: the negative logarithm of the IC50 (pIC50) in experiment [1] is 7.96; in experiment [2] it was 7.64.
`c1cncc(CCCSc2nsnc2OC2CN3CCC2CC3)c1` (racemic) [Compound 155, (±)-3-(3-[3-pyridyl]propylthio)-4-(1-azabicyclo[2.2.2]octyl-3-oxy)-1,2,5-thiadiazole]: the negative-log IC50 (pIC50) is 8.47 in experiment [1] and 8.06 in experiment [2].
Consider `CCCCOc1nsnc1OCCN(C)C` [Compound 33, 3-Butyloxy-4-(2-(dimethylamino)ethoxy)-1,2,5-thiadiazole], for which the pIC50 in experiment [1] was 7.29; in experiment [2] (setting [3]), 7.32.
Take `ClCCCOc1nsnc1OC1CN2CCC1CC2` (racemic) [Compound 116, (±)-3-(3-Chloropropoxy)-4-(1-azabicyclo[2.2.2]octyl-3-oxy)-1,2,5-thiadiazole]: the pIC50 was 7.85 in experiment [1] and 7.48 in experiment [2].
With `c1csc(CCCSc2nsnc2OC2CN3CCC2CC3)c1` (racemic) [Compound 21, (±)-3-(3-(2-Thienyl)propylthio)-4-(1-azabicyclo[2.2.2]-octyl-3-oxy-1,2,5-thiadiazole], the figures for the pIC50 in experiment [1] and in experiment [2] were 8.36 and 8.40, respectively.
With `CCCCOc1nsnc1O[C@H]1CN2CCC[C@@H]1C2` (relative stereo) [Compound 71, 3-(1-Butyloxy)-4-[endo-(+,-)-6-(1-azabicyclo[3.2.1]octyloxy)]-1,2,5-thiadiazole], the negative-log IC50 (pIC50) in experiment [1] is 8.96; in experiment [2] (setting [3]) it was 8.94.
In the case of `FC(F)(F)C(F)(F)CSc1nsnc1OC1CN2CCC1CC2` (racemic) [Compound 20, (±)-3-(2,2,3,3,3-Pentafluoropropylthio)-4-(1-azabicyclo-[2.2.2]octyl-3-oxy)-1,2,5-thiadiazole], the negative-log IC50 (pIC50) was 8.59 in experiment [1] and 8.40 in experiment [2].
`C1C[C@H]2CN(C1)C[C@H]2Oc1nsnc1OCC1CC1` (relative stereo) [Compound 182, (±)-endo-3-(cyclopropylmethoxy)-4-(1-azabicyclo[3.2.1]octyl-6-oxy)-1,2,5-thiadiazole]: the pIC50 in experiment [1] was 9.22; in experiment [2] (setting [3]), 8.46.
On to `CC(C)(CCOc1nsnc1O[C@@H]1CN2CCC[C@H]1C2)c1ccccc1` (relative stereo) [Compound 204, (±)-endo-3-(3-Methyl-3-phenylbutoxy)-4-(1-azabicyclo[3.2.1]octyl-6-oxy)-1,2,5-thiadiazole], for which the pIC50 in experiment [1] was 7.23; in experiment [2] (setting [3]), 6.82.
On to `Cl/C=C/COc1nsnc1OC1CN2CCC1CC2` (mixture of isomers) [Compound 120, (±)-3-(trans-3-chloro-2-propenyloxy)-4-(1-azabicyclo[2.2.2]octyl-3-oxy)-1,2,5-thiadiazole], for which the negative logarithm of the IC50 (pIC50) in experiment [1] was 7.96; in experiment [2] it was 7.15.
As to `CC(Oc1nsnc1OC1CN2CCCC1C2)C1CC1` (mixture of isomers) [Compound 199, (±)-endo-3-(1-cyclopropylethoxy)-4-(1-azabicyclo[3.2.1]octyl-6-oxy)-1,2,5-thiadiazole], the values for the negative-log IC50 (pIC50) in experiment [1] and in experiment [2] (setting [3]) were 8.48 and 8.27, respectively.
In the case of `CCCCOc1nsnc1O[C@@H]1CCC[C@@H]1N` [Compound 135, 3-Butyloxy-4-(cis-1R-2-aminocyclopentanoxy)-1,2,5-thiadiazole], the pIC50 in experiment [1] and in experiment [2] (setting [3]) was below 6.00 each time.
In the case of `FC(F)(F)Oc1ccc(COc2nsnc2O[C@@H]2CN3CCC[C@H]2C3)cc1` (relative stereo) [Compound 196, (±)-endo-3-[4-(Trifluoromethoxy)benzyloxy]-4-(1-azabicyclo[3.2.1]octyl-6-oxy)-1,2,5-thiadiazole], the pIC50 in experiment [1] was 8.28; in experiment [2] (setting [3]), 8.06.
With `CCCCOc1nsnc1OC[C@@H]1CCCN1` [Compound 32, (S)-3-Butyloxy-4-(2-pyrrolidinylmethyloxy)-1,2,5-thiadiazole], the pIC50 in experiment [1] was 7.11; in experiment [2] (setting [3]), 7.35.
`FC(F)(F)C(F)(F)COc1nsnc1OC1CN2CCC1CC2` (racemic) [Compound 125, (±)-3-(3,3,3,2,2-Pentafluoropropyloxy)-4-(1-azabicyclo[2.2.2]octyl-3-oxy)-1,2,5-thiadiazole]: the pIC50 is 7.44 in experiment [1] and 6.72 in experiment [2] (setting [3]).
For `FC(F)(F)CCCOc1nsnc1OC1CC2CCC1NC2` (mixture of isomers) [Compound 162, (±)-endo-3-(4,4,4-Trifluorobutyloxy)-4-(2-azabicyclo[2.2.2]octyl-6-oxy)-1,2,5-thiadiazole], the pIC50 in experiment [1] is 6.75; in experiment [2] (setting [3]), 6.89.
For `CCCCOc1nsnc1O[C@@H]1C[C@H]2CC(=O)C[C@@H]1N2C` (relative stereo) [Compound 46, (±)-exo-3-Butyloxy-4-(6-(N-methyl-8-azabicyclo[3.2.1]octan-3-onoxy))-1,2,5-thiadiazole], the pIC50 in experiment [1] and in experiment [2] (setting [3]) was below 6.00 each time.
Consider `FC(F)(F)CCCSc1nsnc1OC1CN2CCC1CC2` (racemic) [Compound 154, (±)-3-(4,4,4-trifluorobutylthio)-4-(1-azabicyclo[2.2.2]octyl-3-oxy)-1,2,5-thiadiazole], for which the pIC50 in experiment [1] is 7.96; in experiment [2], 8.20.

The term pIC50 denotes the negative decadic logarithm of the IC50, by convention in mol/L.
